Key:
[1] = Toxicity in ip dosed Swiss-Webster mouse after 24 hrs; assay type: organism-based; conditions: in vivo
Rattus norvegicus [2] = test: Hypotensive activity in deoxycorticosterone acetate treated hypertensive CD rat assessed as change in blood pressure at 50 mg, ip after 1 hr relative to control; assay type: functional
Rattus norvegicus [3] = test: Cardiovascular activity in deoxycorticosterone acetate treated hypertensive CD rat assessed as change in heart rate at 50 mg, ip after 4 hrs relative to control; assay type: ADME, organism-based; conditions: in vivo
Rattus norvegicus [4] = test: Cardiovascular activity in deoxycorticosterone acetate treated hypertensive CD rat assessed as change in heart rate at 50 mg, ip after 1 hr relative to control; assay type: ADME, organism-based; conditions: in vivo
Rattus norvegicus [5] = test: Hypotensive activity in deoxycorticosterone acetate treated hypertensive CD rat assessed as change in blood pressure at 50 mg, ip after 24 hrs relative to control; assay type: functional
Rattus norvegicus [6] = test: Cardiovascular activity in deoxycorticosterone acetate treated hypertensive CD rat assessed as change in heart rate at 50 mg, ip after 24 hrs relative to control; assay type: ADME, organism-based; conditions: in vivo
Rattus norvegicus [7] = test: Hypotensive activity in deoxycorticosterone acetate treated hypertensive CD rat assessed as change in blood pressure at 50 mg, ip after 4 hrs relative to control; assay type: functional
Rattus norvegicus [8] = test: Hypotensive activity in deoxycorticosterone acetate treated hypertensive CD rat assessed as change in blood pressure at 50 mg, ip after 2 hrs relative to control; assay type: functional
Rattus norvegicus [9] = test: Cardiovascular activity in deoxycorticosterone acetate treated hypertensive CD rat assessed as change in heart rate at 50 mg, ip after 2 hrs relative to control; assay type: ADME, organism-based; conditions: in vivo
Rattus norvegicus [10] = test: Hypotensive activity in deoxycorticosterone acetate treated hypertensive CD rat assessed as change in blood pressure at 20 mg, ip after 2 hrs relative to control; assay type: functional
Rattus norvegicus [11] = test: Cardiovascular activity in deoxycorticosterone acetate treated hypertensive CD rat assessed as change in heart rate at 20 mg, ip after 2 hrs relative to control; assay type: ADME, organism-based; conditions: in vivo
Rattus norvegicus [12] = test: Hypotensive activity in deoxycorticosterone acetate treated hypertensive CD rat assessed as change in blood pressure at 20 mg, ip after 24 hrs relative to control; assay type: functional
Rattus norvegicus [13] = test: Cardiovascular activity in deoxycorticosterone acetate treated hypertensive CD rat assessed as change in heart rate at 20 mg, ip after 4 hrs relative to control; assay type: ADME, organism-based; conditions: in vivo
Rattus norvegicus [14] = test: Hypotensive activity in deoxycorticosterone acetate treated hypertensive CD rat assessed as change in blood pressure at 20 mg, ip after 1 hr relative to control; assay type: functional
Rattus norvegicus [15] = test: Cardiovascular activity in deoxycorticosterone acetate treated hypertensive CD rat assessed as change in heart rate at 20 mg, ip after 24 hrs relative to control; assay type: ADME, organism-based; conditions: in vivo
Rattus norvegicus [16] = test: Cardiovascular activity in deoxycorticosterone acetate treated hypertensive CD rat assessed as change in heart rate at 20 mg, ip after 1 hr relative to control; assay type: ADME, organism-based; conditions: in vivo
Rattus norvegicus [17] = test: Hypotensive activity in deoxycorticosterone acetate treated hypertensive CD rat assessed as change in blood pressure at 20 mg, ip after 4 hrs relative to control; assay type: functional
Rattus norvegicus [18] = test: Cardiovascular activity in deoxycorticosterone acetate treated hypertensive CD rat assessed as change in heart rate at 10 mg, ip after 24 hrs relative to control; assay type: ADME, organism-based; conditions: in vivo
Rattus norvegicus [19] = test: Hypotensive activity in deoxycorticosterone acetate treated hypertensive CD rat assessed as change in blood pressure at 10 mg, ip after 2 hrs relative to control; assay type: functional
Rattus norvegicus [20] = test: Hypotensive activity in deoxycorticosterone acetate treated hypertensive CD rat assessed as change in blood pressure at 10 mg, ip after 1 hr relative to control; assay type: functional
Rattus norvegicus [21] = test: Cardiovascular activity in deoxycorticosterone acetate treated hypertensive CD rat assessed as change in heart rate at 10 mg, ip after 1 hr relative to control; assay type: ADME, organism-based; conditions: in vivo
Rattus norvegicus [22] = test: Cardiovascular activity in deoxycorticosterone acetate treated hypertensive CD rat assessed as change in heart rate at 10 mg, ip after 4 hrs relative to control; assay type: ADME, organism-based; conditions: in vivo
Rattus norvegicus [23] = test: Hypotensive activity in deoxycorticosterone acetate treated hypertensive CD rat assessed as change in blood pressure at 10 mg, ip after 4 hrs relative to control; assay type: functional
Rattus norvegicus [24] = test: Cardiovascular activity in deoxycorticosterone acetate treated hypertensive CD rat assessed as change in heart rate at 10 mg, ip after 2 hrs relative to control; assay type: ADME, organism-based; conditions: in vivo
Rattus norvegicus [25] = test: Hypotensive activity in deoxycorticosterone acetate treated hypertensive CD rat assessed as change in blood pressure at 10 mg, ip after 24 hrs relative to control; assay type: functional
Rattus norvegicus [26] = test: Hypotensive activity in deoxycorticosterone acetate treated hypertensive CD rat assessed as change in blood pressure at 100 mg, ip after 24 hrs relative to control; assay type: functional
Rattus norvegicus [27] = test: Hypotensive activity in deoxycorticosterone acetate treated hypertensive CD rat assessed as change in blood pressure at 100 mg, ip after 1 hr relative to control; assay type: functional
Rattus norvegicus [28] = test: Cardiovascular activity in deoxycorticosterone acetate treated hypertensive CD rat assessed as change in heart rate at 100 mg, ip after 2 hrs relative to control; assay type: ADME, organism-based; conditions: in vivo
Rattus norvegicus [29] = test: Hypotensive activity in deoxycorticosterone acetate treated hypertensive CD rat assessed as change in blood pressure at 100 mg, ip after 4 hrs relative to control; assay type: functional
Rattus norvegicus [30] = test: Cardiovascular activity in deoxycorticosterone acetate treated hypertensive CD rat assessed as change in heart rate at 100 mg, ip after 1 hr relative to control; assay type: ADME, organism-based; conditions: in vivo
Rattus norvegicus [31] = test: Cardiovascular activity in deoxycorticosterone acetate treated hypertensive CD rat assessed as change in heart rate at 100 mg, ip after 4 hrs relative to control; assay type: ADME, organism-based; conditions: in vivo
Rattus norvegicus [32] = test: Hypotensive activity in deoxycorticosterone acetate treated hypertensive CD rat assessed as change in blood pressure at 100 mg, ip after 2 hrs relative to control; assay type: functional
Rattus norvegicus [33] = test: Cardiovascular activity in deoxycorticosterone acetate treated hypertensive CD rat assessed as change in heart rate at 100 mg, ip after 24 hrs relative to control; assay type: ADME, organism-based; conditions: in vivo

SMILES | LD50 at 24 h [1] [mg/kg] | Activity (Rattus norvegicus [2]) [%] | Activity (Rattus norvegicus [3]) [%] | Activity (Rattus norvegicus [4]) [%] | Activity (Rattus norvegicus [5]) [%] | Activity (Rattus norvegicus [6]) [%] | Activity (Rattus norvegicus [7]) [%] | Activity (Rattus norvegicus [8]) [%] | Activity (Rattus norvegicus [9]) [%] | Activity (Rattus norvegicus [10]) [%] | Activity (Rattus norvegicus [11]) [%] | Activity (Rattus norvegicus [12]) [%] | Activity (Rattus norvegicus [13]) [%] | Activity (Rattus norvegicus [14]) [%] | Activity (Rattus norvegicus [15]) [%] | Activity (Rattus norvegicus [16]) [%] | Activity (Rattus norvegicus [17]) [%] | also measured
CC(=O)Oc1c2c(c3c(c1OC(C)=O)CCN(C)C3)CCC2 | 150 |  |  |  |  |  |  |  |  |  |  |  |  |  |  |  |  | 
Br.CN1CCc2c(c(O)c(O)c3c2CCC3)C1 | 150 | -1.1 | 4.1 | 8.2 | -3.6 | 3 | 3 | 2.6 | 4.8 |  |  |  |  |  |  |  |  | 
COc1ccc(CC(=O)N2CCc3c4c(c(OC)c(OC)c3C2)CCC4)cc1OC | 160 |  |  |  |  |  |  |  |  | -3.9 | 1.8 | -3.1 | 1.3 | 5.4 | -6.7 | 1.9 | -6.3 | 
Br.CN1CCc2c(O)c(O)c3c(c2C1)CCC3 | 160 | -9.1 | 4.6 | -1.9 | -8.6 | -8.6 | -5.7 | -3.5 | 5.1 |  |  |  |  |  |  |  |  | 
COc1ccc(CN2CCc3c4c(c(OC)c(OC)c3C2)CCC4)cc1OC.Cl | 141 | -8.8 | 10.2 | 13 | 0.9 | -1.3 | -0.7 | -4.2 | 9 |  |  |  |  |  |  |  |  | 
COc1c2c(c3c(c1OC)CCN(C(=O)C(c1ccccc1)c1ccccc1)C3)CCC2 | 200 |  |  |  |  |  |  |  |  |  |  |  |  |  |  |  |  | 
COc1ccc(CC(=O)N2CCc3c(c4c(c(OC)c3OC)CCC4)C2)cc1OC | 500 |  |  |  |  |  |  |  |  |  |  |  |  |  |  |  |  | 
Br.COc1ccc(CCN2CCc3c4c(c(OC)c(OC)c3C2)CCC4)cc1OC | 125 | -26 | 5.4 | 22 | -2.8 | 2.4 | -6.6 | -11.3 | 17.6 |  |  |  |  |  |  |  |  | 
CC(=O)Oc1c2c(c3c(c1OC(C)=O)CN(C)CC3)CCC2.O=C(O)C(F)(F)F | 200 | -13.1 | 2.6 | 14.6 | -5.1 | 0.3 | -0.6 | 5.2 | 7.3 |  |  |  |  |  |  |  |  | 
COc1c2c(c3c(c1OC)CNCC3)CCC2 | 79 |  |  |  | -16.8 | -3.8 |  |  |  | -4 | 16.9 | -0.2 | 11 | -3.9 | 7.4 | 10.2 | -3.9 | Activity (Rattus norvegicus [18]): -9.1%; Activity (Rattus norvegicus [19]): -3.4%; Activity (Rattus norvegicus [20]): -3.1%; Activity (Rattus norvegicus [21]): 5.8%; Activity (Rattus norvegicus [22]): 3.9%; Activity (Rattus norvegicus [23]): -14.2%; Activity (Rattus norvegicus [24]): 8.1%; Activity (Rattus norvegicus [25]): -7.2%
Br.CCC(C)CN1CCc2c3c(c(OC)c(OC)c2C1)CCC3 (stereo not given) | 100 |  |  |  |  |  |  |  |  | -8.1 | 7.3 | -1.6 | 3.4 | -13.1 | -5.5 | 7.8 | -7 | Activity (Rattus norvegicus [18]): -2.4%; Activity (Rattus norvegicus [19]): -1.9%; Activity (Rattus norvegicus [20]): -12.2%; Activity (Rattus norvegicus [21]): 3.6%; Activity (Rattus norvegicus [22]): -4.3%; Activity (Rattus norvegicus [23]): 0.7%; Activity (Rattus norvegicus [24]): -4.2%; Activity (Rattus norvegicus [25]): -2.6%
COc1ccc(C(=O)N2CCc3c4c(c(OC)c(OC)c3C2)CCC4)cc1OC | 150 |  |  |  |  |  |  |  |  | -1.4 | 8.9 | 5.6 | 2.2 | -4 | 5.7 | 3.8 | -3.1 | 
COc1ccc(C(=O)N2CCc3c(c4c(c(OC)c3OC)CCC4)C2)cc1OC | > 1000 |  |  |  |  |  |  |  |  |  |  |  |  |  |  |  |  | Activity (Rattus norvegicus [26]): -6%; Activity (Rattus norvegicus [27]): -12.1%; Activity (Rattus norvegicus [28]): 3.4%; Activity (Rattus norvegicus [29]): -3.4%; Activity (Rattus norvegicus [30]): 0.2%; Activity (Rattus norvegicus [31]): -1.2%; Activity (Rattus norvegicus [32]): -8.8%; Activity (Rattus norvegicus [33]): -6.5%
COc1c2c(c3c(c1OC)CN(CCC(c1ccccc1)c1ccccc1)CC3)CCC2 | 1000 |  |  |  |  |  |  |  |  |  |  |  |  |  |  |  |  | Activity (Rattus norvegicus [26]): -7%; Activity (Rattus norvegicus [27]): -3.5%; Activity (Rattus norvegicus [28]): 4.6%; Activity (Rattus norvegicus [29]): -6.7%; Activity (Rattus norvegicus [30]): 4%; Activity (Rattus norvegicus [31]): 0.8%; Activity (Rattus norvegicus [32]): -7.9%; Activity (Rattus norvegicus [33]): 0.6%
Br.COc1c2c(c3c(c1OC)CN(C)CC3)CCC2 | 100 | -3 | 1.6 | -8.7 | -4.6 | -3.8 | -6.3 | -2.9 | -4.4 | 5.5 | 9.2 | -2.9 | 8.5 | 6.3 | 1.5 | 3.5 | -4.2 | 
Br.COc1ccc(CN2CCc3c(c4c(c(OC)c3OC)CCC4)C2)cc1OC | 200 | -8.4 | 1 | 0.4 | 3.3 | -9.1 | -1 | -2.4 | 0.4 |  |  |  |  |  |  |  |  | 
COc1c2c(c3c(c1OC)CCN(CC(c1ccccc1)c1ccccc1)C3)CCC2 | > 1000 |  |  |  |  |  |  |  |  |  |  |  |  |  |  |  |  | Activity (Rattus norvegicus [26]): 4%; Activity (Rattus norvegicus [27]): -5%; Activity (Rattus norvegicus [28]): 25.4%; Activity (Rattus norvegicus [29]): -2%; Activity (Rattus norvegicus [30]): 18.5%; Activity (Rattus norvegicus [31]): 8.6%; Activity (Rattus norvegicus [32]): -3.4%; Activity (Rattus norvegicus [33]): -0.5%
COc1c2c(c3c(c1OC)CN(CC(c1ccccc1)c1ccccc1)CC3)CCC2 | > 1000 |  |  |  |  |  |  |  |  | 1.1 | 10.7 | -3 | 0.8 | 1.4 | -5 | 7.4 | -2.9 | Activity (Rattus norvegicus [26]): -3.6%; Activity (Rattus norvegicus [27]): -10.7%; Activity (Rattus norvegicus [28]): 2.4%; Activity (Rattus norvegicus [29]): -11.2%; Activity (Rattus norvegicus [30]): 8.7%; Activity (Rattus norvegicus [31]): 2.4%; Activity (Rattus norvegicus [32]): -12.7%; Activity (Rattus norvegicus [33]): -2.4%
COc1c2c(c3c(c1OC)CN(C(=O)CC(c1ccccc1)c1ccccc1)CC3)CCC2 | 100 |  |  |  |  |  |  |  |  | -6.9 | 15.8 | -2.1 | 2.4 | -4.4 | -1.8 | 16.8 | -5 | 
C[C@](N)(Cc1ccc(O)c(O)c1)C(=O)O [METHYLDOPA] |  | -31 | 31 | 106.2 | -16.5 | -19.3 | -47.7 | -50 | 104.1 |  |  |  |  |  |  |  |  | 
Br.COc1ccc(CCN2CCc3c(c4c(c(OC)c3OC)CCC4)C2)cc1OC | 100 |  |  |  |  |  |  |  |  |  |  |  |  |  |  |  |  | 

Reference: ChEMBL document CHEMBL3272130, “Synthesis and hypotensive activity of some cyclopentano-1,2,3,4-tetrahydroisoquinolines” (J Med Chem, 1977)
